Data published in patent US12521395B2, “Gem-disubstituted heterocyclic compounds and their use as IDH inhibitors” (NERVIANO MEDICAL SCIENCES S.R.L., priority 2019, dated 2026).

Columns and labels:
IDH1^R132C = IDH1^R132C (Homo sapiens, UniProt O75874, R132C); assay: NADPH depletion assay (diaphorase/resazurin), IDH1 R132C; format: biochemical; conditions: IDH1^R132C 2 nM, alpha-ketoglutarate 0.14 mM; read-out: IDH1^R132C IC50
Protocol: IDH mutated enzyme activity converting alpha-ketoglutarate to 2-hydroxyglutaric acid is measured using a NADPH depletion assay. In the assay the remaining cofactor is measured at the end of the reaction with the addition of a catalytic excess of diaphorase and resazurin, to generate a fluorescent signal in proportion to the amount of NADPH remaining. IDH1 WT enzyme as well as mutated isoforms IDH1^R132H, IDH1^R132C, and IDH2^R172K enzymes are commercially available proteins (see e.g. Sino Biological, Abcam, Active Motif or Creative BioMart).
IDH1^R132H homodimer enzyme are diluted to 8 nM, in 10 μL of Assay Buffer (150 mM NaCl, 50 mM Tris-HCl pH 7.6, 10 mM MgCl2, 0.001% Triton X-100, 4 mM β-mercaptoethanol); 0.2 μL of test compound, previously serially diluted 1 to 3, >10 experimental points from 1 mM in DMSO, is added and the mixture is incubated for 15 minutes at room temperature. The reaction is started with the addition of 10 μL of Substrate Mix (12 μM NADPH, 3.4 mM alpha-ketoglutarate in Assay Buffer) and the mixture is incubated for 60 minutes at room temperature. The reaction is terminated with the addition of 5 μl of Detection Buffer (100 μg/mL diaphorase, 30 μM resazurin, in IX Assay Buffer), and is incubated for 15 minutes before reading on a ViewLux as platereader at Ex544/Em590.
Compounds are assayed for their activity against IDH1^R132C following the same assay as above with the following modifications: IDH1^R132C and alpha-ketoglutarate final concentrations in the Assay Buffer is 2 nM and 0.14 mM, respectively.

[1] = tested on: cell lines HT-1080 (IDH1^R132C); assay: Cellular assay: inhibition of 2HG production, LC-MS/MS; format: cell-based; conditions: Homo sapiens, 72 hr incubation, 2-HG in cell culture media, read-out: HT1080 2-HG IC50
Protocol: Cell lines HT-1080 (commercially available) are maintained in E-MEM 10% FCS and incubated at 37° C. in a humidified 5% CO2 atmosphere.
Cells are seeded into 96 well black flat bottom plates at a density of 500 cells/well in 100 μL complete medium. After 24 hr the medium is replaced with 200 μL of fresh medium and compounds (dissolved into DMSO) are administrated to the cells using D300E Digital Dispenser (Tecan).
After 72 hr of incubation 100 μL from each well are collected and used for 2HG (R(−)-2-hydroxyglutarate) quantification. Levels of 2-HG in cell culture media are determined by LC-MS/MS. Cell supernatants (100 μL/well) are treated with 1 M aqueous trichloroacetic acid containing 130 μM of the internal standard 2-HG-d3 (20 μL/well) in a 96-well plate. The plates are sealed, mildly vortexed for 60 minutes, centrifuged at 4,000 RPM for 15 minutes, placed in a refrigerated autosampler taking care not to shake them, and aliquots of the upper part of the samples are directly injected in the chromatographic system. Calibration standards are obtained by ten folds dilution of aqueous 2-HG stock solutions with blank cell culture medium and denatured exactly in the same way as described above for samples. Samples and standards are assayed for 2-HG by reversed phase chromatography on a C18 column eluted with aqueous 0.15% formic acid and briefly washed with 90% methanol at the end of the run. 2-HG is determined by negative ion electrospray ionization with the internal standard method on a triple quadrupole mass spectrometer monitoring the MRM transitions 147>129 (2-HG) and 150>132 (2-HG-d3).
2-HG inhibition was calculated by comparing treated versus control data using Assay Explore (Symyx) software, with IC50 determined using a sigmoidal fitting algorithm.

IDH1^R132C, sequence (O75874 whole entry R132C, canonical isoform): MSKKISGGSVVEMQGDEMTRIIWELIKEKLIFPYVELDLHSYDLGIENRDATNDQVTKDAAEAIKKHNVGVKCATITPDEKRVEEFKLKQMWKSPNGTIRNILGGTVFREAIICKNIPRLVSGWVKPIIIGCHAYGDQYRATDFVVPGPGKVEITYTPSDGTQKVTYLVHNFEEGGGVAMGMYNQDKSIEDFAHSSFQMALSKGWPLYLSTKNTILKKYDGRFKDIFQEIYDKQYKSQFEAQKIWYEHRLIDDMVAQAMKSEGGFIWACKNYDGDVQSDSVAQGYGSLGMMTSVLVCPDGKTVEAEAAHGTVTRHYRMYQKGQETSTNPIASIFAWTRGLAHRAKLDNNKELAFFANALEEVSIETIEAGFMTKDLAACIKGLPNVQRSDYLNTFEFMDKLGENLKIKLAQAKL

SMILES	IC50 (IDH1^R132C)	IC50 [1]
C=C(CN1CCN(C2(c3ccc([C@H](C)Nc4ncc5ccc(=O)n(C(C)C)c5n4)cc3)CCOCC2)CC1)C(=O)O [cpd 7, 2-{[4-(4-{4-[(1S)-1-{[7-oxo-8-(propan-2-yl)-7,8-dihydropyrido[2,3-d]pyrimidin-2-yl]amino}ethyl]phenyl}tetrahydro-2H-pyran-4-yl)piperazin-1-yl]methyl}prop-2-enoic acid]	40.2 nM	562 nM
CCC(=O)N1CCN(C2(c3ccc([C@H](C)Nc4ncc5ccc(=O)n(C(C)C)c5n4)cc3)CCOCC2)CC1 [cpd 8, 2-{[(1S)-1-{4-[4-(4-propanoylpiperazin-1-yl)tetrahydro-2H-pyran-4-yl]phenyl}ethyl]amino}-8-(propan-2-yl)pyrido[2,3-d]pyrimidin-7(8H)-one]	1320 nM	1930 nM
C=C(F)C(=O)N1CCN(C2(c3ccc([C@H](C)Nc4ncc5ccc(=O)n(C(C)C)c5n4)cc3)CCOCC2)CC1 [cpd 54, 2-{[(1S)-1-(4-{4-[4-(2-fluoroacryloyl)piperazin-1-yl]tetrahydro-2H-pyran-4-yl}phenyl)ethyl]amino}-8-(propan-2-yl) pyrido[2,3-d]pyrimidin-7(8H)-one]	928 nM	–
C=CC(=O)NCC(=O)NC1(c2ccc([C@H](C)Nc3ncc4ccc(=O)n(C(C)C)c4n3)cc2)CCC(F)(F)CC1 [cpd 56, N-{2-[(4,4-difluoro-1-{4-[(1S)-1-{[7-oxo-8-(propan-2-yl)-7,8-dihydropyrido[2,3-d]pyrimidin-2-yl]amino}ethyl]phenyl}cyclohexyl)amino]-2-oxoethyl}prop-2-enamide]	321 nM	–
C=CC(=O)N[C@H](C)C(=O)NC1(c2ccc([C@H](C)Nc3ncc4ccc(=O)n(C(C)C)c4n3)cc2)CCC(F)(F)CC1 [cpd 57, N2-acryloyl-N-(4,4-difluoro-1-{4-[(1S)-1-{[7-oxo-8-(propan-2-yl)-7,8-dihydropyrido[2,3-d]pyrimidin-2-yl]amino}ethyl]phenyl}cyclohexyl)-D-alaninamide]	533 nM	–
C=CC(=O)N[C@@H](C)C(=O)NC1(c2ccc([C@H](C)Nc3ncc4ccc(=O)n(C(C)C)c4n3)cc2)CCC(F)(F)CC1 [cpd 58, N2-acryloyl-N-(4,4-difluoro-1-{4-[(1S)-1-{[7-oxo-8-(propan-2-yl)-7,8-dihydropyrido[2,3-d]pyrimidin-2-yl]amino}ethyl]phenyl}cyclohexyl)-L-alaninamide]	352 nM	–
C=CC(=O)NCCNC1(c2ccc([C@H](C)Nc3ncc4ccc(=O)n(C(C)C)c4n3)cc2)CCOCC1 [cpd 59, N-{2-[(4-{4-[(1S)-1-{[7-oxo-8-(propan-2-yl)-7,8-dihydropyrido[2,3-d]pyrimidin-2-yl]amino}ethyl]phenyl}tetrahydro-2H-pyran-4-yl)amino]ethyl}prop-2-enamide]	151 nM	–
CC(C)n1c(=O)ccc2cnc(N[C@@H](C)c3ccc(C4(N5CCN(C(=O)C(O)CO)CC5)CCC(F)(F)CC4)cc3)cc21 (stereo partly drawn) [cpd 60, 7-{[(1S)-1-(4-{1-[4-(2,3-dihydroxypropanoyl)piperazin-1-yl]-4,4-difluorocyclohexyl}phenyl)ethyl]amino}-1-(propan-2-yl)-1,6-naphthyridin-2(1H)-one]	71 nM	–
C=CC(=O)N1CCN(C2(c3ccc([C@@H](C)Nc4cc5c(ccc(=O)n5C(C)C)cn4)cc3)CCC(F)(F)CC2)CC1 [cpd 63, 7-{[(1R)-1-{4-[1-(4-acryloylpiperazin-1-yl)-4,4-difluorocyclohexyl]phenyl}ethyl]amino}-1-(propan-2-yl)-1,6-naphthyridin-2(1H)-one]	55 nM	–
CC(C)n1c(=O)ccc2cnc(N[C@@H](C)c3ccc(C4(N5CCN(C#N)CC5)CCOCC4)cc3)nc21 [cpd 65, 4-(4-{4-[(1S)-1-{[7-oxo-8-(propan-2-yl)-7,8-dihydropyrido[2,3-d]pyrimidin-2-yl]amino}ethyl]phenyl}tetrahydro-2H-pyran-4-yl)piperazine-1-carbonitrile]	305 nM	–
C=CC(=O)NCCN(C(=O)C(F)(F)F)C1(c2ccc([C@H](C)Nc3ncc4ccc(=O)n(C(C)C)c4n3)cc2)CCOCC1 [cpd 66, N-{2-[(4-{4-[(1S)-1-{[7-oxo-8-(propan-2-yl)-7,8-dihydropyrido[2,3-d]pyrimidin-2-yl]amino}ethyl]phenyl}tetrahydro-2H-pyran-4-yl)(trifluoroacetyl)amino]ethyl}prop-2-enamide]	75 nM	–
CCC(=O)N1CCN(C2(c3ccc([C@H](C)Nc4cc5c(ccc(=O)n5C(C)C)cn4)cc3)CCC(F)(F)CC2)CC1 [cpd 67, 7-{[(1S)-1-{4-[4,4-difluoro-1-(4-propanoylpiperazin-1-yl)cyclohexyl]phenyl}ethyl]amino}-1-(propan-2-yl)-1,6-naphthyridin-2(1H)-one]	32 nM	–

Molecules with a lower IC50 (IDH1^R132C), results first:

IC50 (IDH1^R132C)	IC50 [1]	SMILES
12 nM	4.9 nM	C=CC(=O)N1CCN(C(C)(C)c2ccc([C@H](C)Nc3ncc4ccc(=O)n(C(C)C)c4n3)cc2)CC1 [cpd 2, 2-{[(1S)-1-{4-[2-(4-acryloylpiperazin-1-yl)propan-2-yl]phenyl}ethyl]amino}-8-(propan-2-yl)pyrido[2,3-d]pyrimidin-7(8H)-one]
27.2 nM	13 nM	C=CC(=O)N1CCN(C2(c3ccc([C@H](C)Nc4ncc5ccc(=O)n(C(C)C)c5n4)cc3)COC2)CC1 [cpd 3, 2-{[(1S)-1-{4-[3-(4-acryloylpiperazin-1-yl)oxetan-3-yl]phenyl}ethyl]amino}-8-(propan-2-yl)pyrido[2,3-d]pyrimidin-7(8H)-one]
5.9 nM	5.2 nM	C=CC(=O)N1CCN(C2(c3ccc([C@H](C)Nc4ncc5ccc(=O)n(C(C)C)c5n4)cc3)CCN(C(C)=O)CC2)CC1 [cpd 6, 2-{[(1S)-1-{4-[1-acetyl-4-(4-acryloylpiperazin-1-yl)piperidin-4-yl]phenyl}ethyl]amino}-8-(propan-2-yl)pyrido[2,3-d]pyrimidin-7(8H)-one]
13 nM	–	C=CC(=O)N1CCN(C(C)(CC)c2ccc([C@H](C)Nc3ncc4ccc(=O)n(C(C)C)c4n3)cc2)CC1 (stereo partly drawn) [cpd 46, 2-{[(1S)-1-{4-[2-(4-acryloylpiperazin-1-yl)butan-2-yl]phenyl}ethyl]amino}-8-(propan-2-yl)pyrido[2,3-d]pyrimidin-7(8H)-one]
11 nM	–	[2H]C([2H])([2H])C([2H])(n1c(=O)ccc2cnc(N[C@@H](C)c3ccc(C4(N5CCN(C(=O)C=C)CC5)CCOCC4)cc3)nc21)C([2H])([2H])[2H] [cpd 55, 2-{[(1S)-1-{4-[4-(4-acryloylpiperazin-1-yl)tetrahydro-2H-pyran-4-yl]phenyl}ethyl]amino}-8-[(^2H7)propan-2-yl]pyrido[2,3-d]pyrimidin-7(8H)-one]
6 nM	–	C=CC(=O)N1CC(N(C)C2(c3ccc([C@H](C)Nc4cc5c(ccc(=O)n5C(C)C)cn4)cc3)CCC(F)(F)CC2)C1 [cpd 61, 7-{[(1S)-1-(4-{1-[(1-acryloylazetidin-3-yl)(methyl)amino]-4,4-difluorocyclohexyl}phenyl)ethyl]amino}-1-(propan-2-yl)-1,6-naphthyridin-2(1H)-one]
2 nM	–	C=CC(=O)N1CC(N(C(C)=O)C2(c3ccc([C@H](C)Nc4cc5c(ccc(=O)n5C(C)C)cn4)cc3)CCC(F)(F)CC2)C1 [cpd 62, N-(1-acryloylazetidin-3-yl)-N-(4,4-difluoro-1-{4-[(1S)-1-{[2-oxo-1-(propan-2-yl)-1,2-dihydro-1,6-naphthyridin-7-yl]amino}ethyl]phenyl}cyclohexyl)acetamide]
